Assays:
3′ UTR of the TNFα gene = assay: cell-based luciferase reporter assay, 5B cell line (luciferase gene with entire 3′ UTR of the TNFα gene); design: species or system mouse; settings: for Luciferase 5B (% of DMSO control) / Luciferase 5B/3B (% of DMSO control 5B)/(% of DMSO control 3B): 10 μM compound; for Luciferase 5B (% of DMSO control): 1 h, then LPS, 5B cell line; for Luciferase 5B/3B (% of DMSO control 5B)/(% of DMSO control 3B): ratio of 5B to control 3B cell line
TNFα = assay: ELISA of TNFα secreted into the media after LPS; format: cell-based; settings: for TNFα Secretion (% of DMSO control): 10 μM compound, 1 h, then LPS
Description: The ability of candidate compounds to reduce the amount of secreted TNFα was also directly tested using an ELISA assay. […] A standard ELISA analysis was used to measure the amount of TNFα secreted into the media (see, for example, Ausubel et al., supra). The effect of a candidate compound on TNFα secretion in this assay is reported in the following tables as a percentage of the amount of TNFα secreted by a control cell that was administered a DMSO vehicle control only.

## CC(C)C[C@H](NC(=O)c1ccc(C(=NNC(=N)N)c2ccccc2)cc1)C(=O)N1CCN(C(=O)[C@H](Cc2ccccc2)NC(=O)c2ccc(C(=O)c3ccccc3)cc2)CC1.O=C(O)C(F)(F)F [MES 10168, (4-E)-Guanylhydrazone of 1-[(S)-N-(4-benzoylbenzoyl)-2-amino-3-phenylpropanoyl]-4-[(2S)-N-(4-benzoylbenzoyl)-2-amino-4-methylpentanoyl]-1,4-piperazine trifluoroacetate]
3′ UTR of the TNFα gene
  Luciferase 5B (% of DMSO control): 104 % of DMSO control
  Luciferase 5B/3B (% of DMSO control 5B)/(% of DMSO control 3B): 127 (% of DMSO control 5B)/(% of DMSO control 3B)
TNFα
  TNFα Secretion (% of DMSO control): 35 % of DMSO control

## CC(=NNC(=N)N)c1cccc(C(=O)N[C@@H](CC(C)C)C(=O)N2CCN(C(=O)[C@H](Cc3ccccc3)NC(=O)c3ccc(C(=O)c4ccccc4)cc3)CC2)c1.O=C(O)C(F)(F)F [MES 10173, (4-E)-Guanylhydrazone of 1-[(S)-N-(4-benzoylbenzoyl)-2-amino-3-phenylpropanoyl]-4-[(2S)-N-(3-acetylbenzoyl)-2-amino-4-methylpentanoyl]-piperazine trifluoroaceteate]
3′ UTR of the TNFα gene
  Luciferase 5B (% of DMSO control): 26 % of DMSO control
TNFα
  TNFα Secretion (% of DMSO control): 42 % of DMSO control

## O=C(N[C@@H](Cc1ccccc1)C(=O)N1CCN(C(=O)CCC(=O)N2CCN(c3ccccc3)CC2)CC1)c1ccc(C(=O)c2ccccc2)cc1 [MES 10229]
3′ UTR of the TNFα gene
  Luciferase 5B (% of DMSO control): 31 % of DMSO control
  Luciferase 5B/3B (% of DMSO control 5B)/(% of DMSO control 3B): 49 (% of DMSO control 5B)/(% of D
TNFα
  TNFα Secretion (% of DMSO control): 65 % of DMSO control

## CC(C)C[C@H](NC(=O)c1ccc(C(=O)c2ccccc2)cc1)C(=O)N1CCN(C(=O)CCC(=O)N2CCN(c3ccccc3)CC2)CC1 [MES 10230]
3′ UTR of the TNFα gene
  Luciferase 5B (% of DMSO control): 41 % of DMSO control
  Luciferase 5B/3B (% of DMSO control 5B)/(% of DMSO control 3B): 52 (% of DMSO control 5B)/(% of D
TNFα
  TNFα Secretion (% of DMSO control): 77 % of DMSO control

## C/C(=N\NC(=N)N)c1cccc(C(=O)N[C@@H](CC(C)C)C(=O)N2CCN(C(=O)[C@H](Cc3ccccc3)NCc3ccccc3)CC2)c1 [MES 10241]
3′ UTR of the TNFα gene
  Luciferase 5B (% of DMSO control): 68 % of DMSO control
  Luciferase 5B/3B (% of DMSO control 5B)/(% of DMSO control 3B): 90 (% of DMSO control 5B)/(% of D
TNFα
  TNFα Secretion (% of DMSO control): 100 % of DMSO control

## C/C(=N\NC(=N)N)c1cccc(C(=O)N[C@@H](CC(C)C)C(=O)N2CCN(C(=O)[C@H](Cc3ccccc3)NCc3ccc(I)cc3)CC2)c1 [MES 10242]
3′ UTR of the TNFα gene
  Luciferase 5B (% of DMSO control): 53 % of DMSO control
  Luciferase 5B/3B (% of DMSO control 5B)/(% of DMSO control 3B): 50 (% of DMSO control 5B)/(% of D
TNFα
  TNFα Secretion (% of DMSO control): 67 % of DMSO control

## C/C(=N\NC(=N)N)c1cccc(C(=O)N[C@@H](CC(C)C)C(=O)N2CCN(C(=O)[C@H](Cc3ccccc3)NCc3ccc([N+](=O)[O-])cc3)CC2)c1 [MES 10243]
3′ UTR of the TNFα gene
  Luciferase 5B (% of DMSO control): 81 % of DMSO control
  Luciferase 5B/3B (% of DMSO control 5B)/(% of DMSO control 3B): 79 (% of DMSO control 5B)/(% of D
TNFα
  TNFα Secretion (% of DMSO control): 73 % of DMSO control

## C/C(=N\NC(=N)N)c1cccc(C(=O)N[C@@H](CC(C)C)C(=O)N2CCN(C(=O)[C@H](Cc3ccccc3)NCc3ccc(-c4ccccc4)cc3)CC2)c1 [MES 10244]
3′ UTR of the TNFα gene
  Luciferase 5B (% of DMSO control): 46 % of DMSO control
  Luciferase 5B/3B (% of DMSO control 5B)/(% of DMSO control 3B): 36 (% of DMSO control 5B)/(% of D
TNFα
  TNFα Secretion (% of DMSO control): 48 % of DMSO control

## CC(C)CC(NC(=O)c1ccc(C(=NNC(=N)N)c2ccccc2)cc1)C(=O)N1CCN(C(=O)C(Cc2ccccc2)NC(=O)c2ccccc2)CC1 (stereo not shown) [MES 10247]
3′ UTR of the TNFα gene
  Luciferase 5B (% of DMSO control): 37 % of DMSO control
  Luciferase 5B/3B (% of DMSO control 5B)/(% of DMSO control 3B): 41 (% of DMSO control 5B)/(% of D
TNFα
  TNFα Secretion (% of DMSO control): 39 % of DMSO control

## CC(C)CC(NC(=O)c1ccc(C(=NNC(=N)N)c2ccccc2)cc1)C(=O)N1CCN(C(=O)C(Cc2ccccc2)NC(=O)c2ccccc2)CC1 (stereo not shown) [MES 10248]
3′ UTR of the TNFα gene
  Luciferase 5B (% of DMSO control): 56 % of DMSO control
  Luciferase 5B/3B (% of DMSO control 5B)/(% of DMSO control 3B): 72 (% of DMSO control 5B)/(% of D
TNFα
  TNFα Secretion (% of DMSO control): 39 % of DMSO control

## CC(C)C[C@H](NC(=O)c1ccccc1)C(=O)N1CCN(C(=O)[C@H](Cc2ccccc2)NC(=O)c2ccc(/C(=N/N=C(N)N)c3ccccc3)cc2)CC1.O=C(O)C(F)(F)F [MES 10249, (E)-Guanylhydrazone of 1-[(S)-N-(4-benzoylbenzoyl)-2-amino-3-phenylpropanoyl]-4-[(2S)-N-(benzoyl)-2-amino-4-methylpentanoyl]-1,4-piperazine trifluoroacetate]
3′ UTR of the TNFα gene
  Luciferase 5B (% of DMSO control): 58 % of DMSO control
  Luciferase 5B/3B (% of DMSO control 5B)/(% of DMSO control 3B): 68 (% of DMSO control 5B)/(% of D
TNFα
  TNFα Secretion (% of DMSO control): 40 % of DMSO control

## CC(C)C[C@H](NC(=O)c1ccccc1)C(=O)N1CCN(C(=O)[C@H](Cc2ccccc2)NC(=O)c2ccc(/C(=N\N=C(N)N)c3ccccc3)cc2)CC1.O=C(O)C(F)(F)F [MES 10250, (Z)-Guanylhydrazone of 1-[(S)-N-(4-benzoylbenzoyl)-2-amino-3-phenylpropanoyl]-4-[(2S)-N-(benzoyl)-2-amino-4-methylpentanoyl]-1,4-piperazine trifluoroacetate]
3′ UTR of the TNFα gene
  Luciferase 5B (% of DMSO control): 37 % of DMSO control
  Luciferase 5B/3B (% of DMSO control 5B)/(% of DMSO control 3B): 49 (% of DMSO control 5B)/(% of D
TNFα
  TNFα Secretion (% of DMSO control): 40 % of DMSO control

## C/C(=N\NC(=N)N)c1cccc(C(=O)N[C@@H](CC(C)C)C(=O)N2CCN(C(=O)[C@H](Cc3ccccc3)NC(=O)c3ccc(OCc4ccccc4)cc3)CC2)c1 [MES 10307]
3′ UTR of the TNFα gene
  Luciferase 5B (% of DMSO control): 38 % of DMSO control
  Luciferase 5B/3B (% of DMSO control 5B)/(% of DMSO control 3B): 40 (% of DMSO control 5B)/(% of D
TNFα
  TNFα Secretion (% of DMSO control): 45 % of DMSO control

## (1-Z,4-E)-Bisguanylhydrazone of 1-[(S)-N-(4-benzoylbenzoyl)-2-amino-3-phenylpropanoyl]-4-[(2S)-N-(3-acetylbenzoyl)-2-amino-4-methylpentanoyl]-piperazine bis trifluoroacetate [MES 10172]
3′ UTR of the TNFα gene
  Luciferase 5B (% of DMSO control): 38 % of DMSO control
  Luciferase 5B/3B (% of DMSO control 5B)/(% of DMSO control 3B): 49 (% of DMSO control 5B)/(% of DMSO control 3B)
TNFα
  TNFα Secretion (% of DMSO control): 60 % of DMSO control

## (E,E)-Bisguanylhydrazone of 1-[(S)-N-(4-benzoylbenzoyl)-2-amino-3-phenylpropanoyl]-4-[(2S)-N-(3-acetylbenzoyl)-2-amino-4-methylpentanoyl]-1,4-piperazine bis trifluoroacetate [MES 10171]
3′ UTR of the TNFα gene
  Luciferase 5B (% of DMSO control): 20 % of DMSO control
  Luciferase 5B/3B (% of DMSO control 5B)/(% of DMSO control 3B): 24 (% of DMSO control 5B)/(% of DMSO control 3B)
TNFα
  TNFα Secretion (% of DMSO control): 57 % of DMSO control

## (E,E)-Bisguanylhydrazone of 1-[(S)-N-(4-benzoylbenzoyl)-2-amino-3-phenylpropanoyl]-4-[(2S)-N-(4-benzoylbenzoyl)-2-amino-4-methylpentanoyl]-1,4-piperazine bis trifluoroacetate [MES 10164]
3′ UTR of the TNFα gene
  effect on luciferase activity in the 5B cell line (luciferase assay), in words: inhibited TNFα secretion
  Luciferase 5B (% of DMSO control): 29 % of DMSO control
  Luciferase 5B/3B (% of DMSO control 5B)/(% of DMSO control 3B): 31 (% of DMSO control 5B)/(% of DMSO control 3B)
TNFα
  TNFα Secretion (% of DMSO control): 45 % of DMSO control
TNFα; after LPS stimulation
  effect on amount of secreted TNFα (direct TNFα secretion assay), in words: inhibited TNFα secretion
